Measurements taken from patent US20080188562A1, “TREATING […] USING PRODRUGS OF […] PREGABALIN” (priority 2006, published 2008).

What was measured:
[1] = Randomized, crossover, fed/fasted single-dose pharmacokinetics study of oral sustained release tablets of compound (3); format: in vivo, human; settings: tablets 2×600 mg oral
Method: A randomized, crossover, fed/fasted single-dose study of the safety, tolerability, and pharmacokinetics of oral administration of 1-{[(α-isobutanoyloxyethoxy)carbonyl]aminomethyl}-1-cyclohexane acetic acid (3) in healthy adult subjects was conducted. The oral sustained release dosage form of Example 6 was used in this study. The study was designed to evaluate the performance of this formulation in humans in comparison with the commercial gabapentin capsule formulation (Neurontin®, Pfizer). Twelve healthy adult volunteers (7 males and 5 females) participated in the study. Mean body weight was 75.6 kg. All subjects received two different treatments in a random order with a one-week washout between treatments.
Blood and plasma samples were collected from all subjects prior to dosing, and at 0.5, 1, 1.5, 2, 3, 4, 6, 8, 12, 18, 24, and 36 hours after dosing. Urine samples were collected from all subjects prior to dosing, and complete urine output was obtained at the 0-4 h, 4-8 h, 8-12 h, 12-18 h, 18-24 h, and 24-36 h intervals after dosing. Blood samples were quenched immediately with methanol and stored frozen at <70° C. Sample aliquots were prepared for analysis of gabapentin and compound (3) using sensitive and specific LC/MS/MS methods.

[2] = tested on: acoustic trauma-induced tinnitus; settings: animals; Bauer and Brozoski 2001; cited from earlier work
tinnitus = settings: doses up to 2,400 mg/day; Bauer and Brozoski 2006; cited from earlier work
[3] = cited from earlier work

| Structure (SMILES) | AUC of compound (3) in blood as percent of corresponding AUC of gabapentin in blood ([1]; fasted) | Maximum concentration of intact compound (3) as percent of corresponding peak gabapentin concentration ([1]; fasted) | Maximum concentration of intact compound (3) in blood ([1]; fasted) | AUC of compound (3) in blood as percent of corresponding AUC of gabapentin in blood ([1]; fed) | Maximum concentration of intact compound (3) as percent of corresponding peak gabapentin concentration ([1]; fed) | Maximum concentration of intact compound (3) in blood ([1]; fed) | Attenuation of acoustic trauma-induced tinnitus [2] | Efficacy in treating tinnitus (tinnitus) | Typical Tmax of immediate release gabapentin [3] |
| --- | --- | --- | --- | --- | --- | --- | --- | --- | --- |
| CC(OC(=O)NCC1(CC(=O)O)CCCCC1)OC(=O)C(C)C (stereo not drawn) [compound (3), 1-{[(α-Isobutanoyloxyethoxy)carbonyl]aminomethyl}-1-Cyclohexane Acetic Acid] | 0.3% | approximately 1.0% | 0.040 µg/mL | less than 0.1% | approximately 0.3% | 0.018 µg/mL | – | – | – |
| NCC1(CC(=O)O)CCCCC1 [gabapentin] | – | – | – | – | – | – | effective in reversibly attenuating acoustic trauma-induced tinnitus in animals | effective in treating tinnitus | 2 to 4 h |
